Consider two compounds from patent US20260327628A1, “AN RNA APTAMER THAT BINDS TO ASP7967 OR AN ANALOGUE THEREOF” (priority 2022, published 2026).

Common to all, as to assay type: cell-based
Series [1] concerns a8-AC17-4-CPP riboswitch (EGFP expression in HEK293 cells). The experiment in a line: Riboswitch assay in HEK293 cells, a8-AC17-4-CPP, ligand response. The following applies: for fold induction at 5 µM: 48 h, 5 μM ligand, HEK293 cells, read-out: activation of EGFP / gene expression (ON/OFF). The procedure: (§1) HEK293 cells were cultured in Dulbecco's modified Eagle's medium (DMEM) supplemented with 10% heat-inactivated FBS (Gibco) containing 2 mM L-glutamine and 100 units ml^−1 of penicillin-streptomycin (DMEM-FBS). Cells were kept in a 37° C. incubator with 5% CO2 and passaged regularly upon reaching 90% confluency. Approximately 20 h prior to transfection, the cells were trypsinized, diluted to ~2.7×10^5 cells ml^−1 and 100 μl per well were seeded onto a 96-well plate. Cells in each well were cotransfected with 100 ng of the EGFP-aptazyme plasmid and 20 ng of pCMV-mCherry^27 (transfection control) using 0.3 μl of TransIT-293 Transfection Reagent (Mirus) according to the manufacturer's instructions. Five hours after transfection, the medium in each well was replaced with fresh medium with (up to 5 μM) or without ASP2905 or ASP7967. The aptamer ligands were dissolved at 1000× concentration in DMSO. Forty-eight hours after transfection, the medium in each well was replaced with 100 μl of phosphate buffered saline (PBS), and fluorescence intensity was measured by Infinite M1000 PRO microplate reader (Tecan). Fluorescence intensity was measured at 484 nm excitation/510 nm emission/5 nm bandwidth for EGFP, and at 587 nm excitation/610 nm emission/10 nm bandwidth for mCherry. Background fluorescence measured using untransfected cells was subtracted from the EGFP and mCherry fluorescence values. Then, EGFP fluorescence was normalized by mCherry fluorescence to account for variations in transfection efficiency and cell counts. All reported values are averages of three replicate wells.
The anti-Rz sequence was varied from 6 to 10 nucleotides, and the aptazyme was inserted in the 3′ UTR of the EGFP transcript.
The EGFP-riboswitch plasmid and an mCherry-expressing plasmid (transfection control) were cotransfected into HEK293 cells in the absence or presence (5 μM) of ASP2905 or ASP7967. EGFP and mCherry fluorescence was measured two days after transfection, and EGFP fluorescence was normalized by mCherry fluorescence to account for variability in transfection efficiency. […] We attribute this to the coincidental complementarity of the nucleotides preceding anti-Rz (CA) to the ribozyme sequence, making the effective anti-Rz sequence length longer than intended.
The riboswitch a8-AC17-4-CPP was further analyzed for the dose dependent response to ASP7967 (FIG. 6d).

A further series concerns HEK293 cells. The experiment in a line: MTT (cell proliferation) assay. The following applies: up to 10 μM, 18 h. The procedure: MTT assay was performed using MTT Cell Count Kit (Nacalai Tesque). HEK293 cells were trypsinized, diluted to 2.4×10^5 cells ml^−1 and 100 μl per well were seeded onto a 96-well plate. The cells were cultured for 24 h at 37° C. under 5% CO2. The medium was replaced with fresh medium (DMEM-FBS with 0.1% (v/v) DMSO) with 0, 2, 5, or 10 μM of ASP2905 or ASP7967. The cells were cultured for additional 18 h at 37° C. under 5% CO2. Subsequently, 10 μl of MTT solution was added to each well, and the cells were incubated for 3 h at 37° C. under 5% CO2. Next, 100 μl of the Solubilization Solution was added to each well. To dissolve the precipitated formazan, the plate was incubated for 2 h at 37° C. Absorbance at 570 nm (reference wavelength: 700 nm) was measured by Infinite M1000 PRO microplate reader (Tecan). The reported values are averages of four replicate wells. The assay was repeated three times to ensure reproducibility.

Series [2] relates to aptazyme-based riboswitches (AC17-4). The experiment in a line: cells. To be noted: Homo sapiens, 48 h; ligand as low as 5 μM in culture medium, HEK293 cells; read-out: activation of gene expression. The protocol:
as §1, with “Five hours after transfection, the medium in each well was replaced with fresh medium with (up to 5 μM) or without ASP2905 or ASP7967. The aptamer ligands were dissolved at 1000× concentration in DMSO.” left out, “All reported values are averages of three replicate wells.” left out

“Also recorded” adds a separate entry of the source.

In the case of `Fc1ccc(Nc2nc(NCc3ncccn3)nc(Nc3ccccc3)n2)cc1` [ASP2905, reference compound], the values for the fold induction at 5 µM in series [1] (Homo sapiens) and in series [2] were approximately 10 and more than 10, respectively. The “effect on cell proliferation / cellular toxicity” value with HEK293 cells is “not significantly affected”; with HEK293 cells (listed as ASP2095), “No cellular toxicity up to 10 μM was observed; also recorded: not cytotoxic”.
`Fc1ccc(Nc2nc(NCc3ncccn3)nc(Nc3ccc(F)cc3)n2)cc1` [ASP7967]: the “ASP7967 concentration at which riboswitch response mostly saturated” value in series [1] is 5 µM. Besides, the fold induction at 5 µM in series [1] (Homo sapiens) was approximately 10; in series [2] it was more than 10. In series [1] (Homo sapiens, HEK293, dose dependent response), this compound came in with an EC50 of approximately 1100 nM. Moreover, the “effect on cell proliferation / cellular toxicity” value in the series with HEK293 cells was “not significantly affected; also recorded: No cellular toxicity up to 10 μM was observed; also recorded: not cytotoxic”.
